{
  "source": "patent US20190218304A1",
  "about": "“POTENTIATING THE EFFECT OF ATP RELEASE” (INNATE PHARMA, priority 2017, published 2019)",
  "test_system": "MCA205 mouse tumor cells (sarcoma)",
  "assay": "In vivo combination treatment, MCA205 tumors in human CD39 KI mice",
  "key": {"[1]": {"settings": "first experimental series: oxaliplatin at day 5, murine I-394 twice a week from day 4"}, "[2]": {"settings": "second experimental series, repeated oxaliplatin"}},
  "experimental": "1×10^6 MCA205 mouse tumor cells (sarcoma) were subcutaneously engrafted in the right flank of mice genetically modified to express human CD39 (CD39KI mice). […] Tumors were measured twice a week with a caliper (L: length and w: width) and tumor volume was calculated with the formula (L×w2)/2. Mice were sacrificed when tumor volume was above 1800 mm^3 or when tumors were highly necrosed. The human CD39 KI mice were engrafted with MCA205 tumor cells at day 0.\nIn a first experimental series, mice were treated at day 5 post tumor cell engraftment with either control (1 group) PBS, or oxaliplatin chemotherapy (2 groups). In parallel, one group of mice treated with oxaliplatin was injected twice a week with anti-CD39 antibody, with the anti-CD39 antibody treatment starting just one day before oxaliplatin treatment (at day 4).",
  "data": [
    {"smiles": "O=C1[O][Pt]2([NH][C@@H]3CCCC[C@H]3[NH]2)[O]C1=O", "note": "[oxaliplatin]", "values": [
      {"measurement": "Complete Response (CR), number of mice", "setting": "[1]", "value": "no CR"},
      {"measurement": "Survival median", "setting": "[1]", "value": 25, "unit": "days"},
      {"measurement": "tumor free mice", "setting": "second experimental series, 40 days post tumor engraftment", "value": "2/12"},
      {"measurement": "CR (complete responses), number of mice", "setting": "[2]", "value": 2},
      {"measurement": "partial responses (PR), number of mice", "setting": "[2]", "value": 3},
      {"measurement": "effect on tumor growth / tumor volume and mice survival", "setting": "second experimental series: oxaliplatin injected twice, one week apart, one day after I-394", "value": "some regression of tumor volume, and increase in mice survival"}
    ]}
  ]
}
